Assays:
U87 tumor = test: PET imaging and tissue biodistribution in U87 tumor-bearing mice; assay type: in vivo, mouse
Protocol: Cell uptake assays, flow cytometry, and IHC were performed as described previously. Banerjee et al., 2019; Nimmagadda et al., 2018. PET imaging and biodistribution Sequential PET imaging and biodistribution studies were conducted to quantify and validate PET imaging data. Briefly, tumor-bearing mice were administrated approximately 7.4 MBq of radiotracer in 150 μL saline via tail-vein injection. They were randomized into the indicated groups of 3-4 mice before radiotracer injection.
In Experiment 1, bilateral xenografts of U87 (right flank) and PSMA+ PC3 PIP (left flank) tumors were established in male NSG mice (n=3), which underwent imaging followed by biodistribution over 24 h. […] A biodistribution study was further conducted with U87 tumors at 2 h post-injection (n=3) to compare the tissue distribution properties of ^64Cu-FP-L1 and ^64Cu-FAPI-04.

[1] = Stability of radiotracer in PBS and bovine serum albumin; assay type: physicochemical; conditions: in PBS and bovine serum albumin at 37° C.
Protocol: Click chemistry was used to conjugate the FAP and PSMA targeting moieties with the selected linker. Radiolabeling employed a rapid microwave-assisted method to generate ^64Cu-FP-L1 in nearly quantitative yield. High-performance liquid chromatography (HPLC) was used to remove unreacted ligand to ensure high specific radioactivity (>19 MBq/nmol). ^64Cu-FP-L1 was stable for at least 4 h in PBS and bovine serum albumin at 37° C.

PSMA+ PC3 PIP tumor = test: PET imaging and biodistribution in PSMA+ PC3 PIP tumor-bearing mice; assay type: in vivo, mouse
Protocol: Cell uptake assays, flow cytometry, and IHC were performed as described previously. […] PET imaging and biodistribution Sequential PET imaging and biodistribution studies were conducted to quantify and validate PET imaging data. Briefly, tumor-bearing mice were administrated approximately 7.4 MBq of radiotracer in 150 μL saline via tail-vein injection. They were randomized into the indicated groups of 3-4 mice before radiotracer injection.

[2] = 4 h, NSG mice, U87 tumor, in %ID/g
[3] = 24 h, NSG mice, U87 tumor, in %ID/g
[4] = U87 in NSG mice, 20 μCi, n=3, G2/G3 and FAPI-04, in %ID/g
[5] = male NSG mice bearing U87 xenografts, 2 h, n=3-4
[6] = blocking with ZJ43 (500 nmol/kg)

## N#C[C@@H]1CCCN1C(=O)CNC(=O)c1ccnc2ccc(OCCCNC(=O)CCc3cn(CCOCCOCCOCCC(=O)N[C@@H](CCCCNC(=O)CN4CCN(CC(=O)O)CCN(CC(=O)O)CC4)C(=O)NCCCCC(=O)N(CCCC[C@H](NC(=O)N[C@@H](CCC(=O)O)C(=O)O)C(=O)O)Cc4ccc(Br)cc4)nn3)cc12 [^64Cu-FP-L1, metal not drawn]
U87 tumor; [2]
  Biodistribution: Heart: 2.13 ± 0.17
  Biodistribution: Kidney: 16.57 ± 2.68
  Biodistribution: Lac.gl: 3.72 ± 0.72
  Biodistribution: Liver: 5.52 ± 0.39
  Biodistribution: Lung: 3.31 ± 0.26
  Biodistribution: Muscle: 1.08 ± 0.10
  Biodistribution: Pancreas: 3.19 ± 0.11
  Biodistribution: Sal.gl: 4.80 ± 0.82
  Biodistribution: Sm.in: 4.26 ± 0.33
  Biodistribution: Spleen: 2.05 ± 0.13
  Biodistribution: Stomach: 2.02 ± 0.30
  Biodistribution: Tumor: 13.81 ± 1.78
U87 tumor; 4 h, bilateral U87 / PSMA+ PC3 PIP model
  Tumor uptake, FAP+ U87 tumor: 19.05±5.89 % ID/g
U87 tumor; [3]
  Biodistribution: Bladder: 0.57 ± 0.13
  Biodistribution: Blood: 0.91 ± 0.23
  Biodistribution: Bone: 0.48 ± 0.08
  Biodistribution: Fat: 0.23 ± 0.10
  Biodistribution: Heart: 1.19 ± 0.34
  Biodistribution: Kidney: 2.45 ± 0.32
  Biodistribution: Lac.gl: 0.87 ± 0.14
  Biodistribution: Liver: 4.21 ± 1.00
  Biodistribution: Lung: 2.07 ± 0.40
  Biodistribution: Muscle: 0.23 ± 0.04
  Biodistribution: Pancreas: 0.72 ± 0.15
  Biodistribution: Sal.gl: 0.92 ± 0.14
  Biodistribution: Sm.in: 2.16 ± 0.29
  Biodistribution: Spleen: 1.67 ± 0.32
  Biodistribution: Stomach: 1.27 ± 0.14
  Biodistribution: Tumor: 3.25 ± 0.05
U87 tumor; 24 h, bilateral U87 / PSMA+ PC3 PIP model
  Tumor uptake, FAP+ U87 tumor: 4.31±0.75 % ID/g
U87 tumor; [4]
  Biodistribution: Bladder: 6.81 ± 3.65
  Biodistribution: Blood: 2.29 ± 0.17
  Biodistribution: Bone: 3.32 ± 0.74
  Biodistribution: Fat: 1.03 ± 0.39
  Biodistribution: Heart: 1.58 ± 0.17
  Biodistribution: Kidney: 9.05 ± 0.88
  Biodistribution: Lacrimal: 3.32 ± 0.36
  Biodistribution: Liver: 4.27 ± 0.53
  Biodistribution: Lung: 2.71 ± 0.40
  Biodistribution: Muscle: 1.52 ± 0.20
  Biodistribution: Pancreas: 1.02 ± 0.72
  Biodistribution: Salivary: 4.64 ± 0.26
  Biodistribution: Sm. Intest.: 3.01 ± 0.08
  Biodistribution: Spleen: 1.83 ± 0.14
  Biodistribution: Stomach: 2.17 ± 0.12
  Biodistribution: U87: 7.79 ± 1.12
U87 tumor; bilateral U87 / PSMA+ PC3 PIP model
  Bone uptake: > 1 % ID/g
U87 tumor; [5]
  Biodistribution: Bladder: 6.16 ± 4.37 % ID/g
  Biodistribution: Blood: 1.87 ± 0.24 % ID/g
  Biodistribution: Bone: 2.02 ± 0.79 % ID/g
  Biodistribution: Fat: 0.35 ± 0.20 % ID/g
  Biodistribution: Heart: 1.36 ± 0.28 % ID/g
  Biodistribution: Kidney: 7.26 ± 2.83 % ID/g
  Biodistribution: Lacrimal glands: 4.74 ± 1.57 % ID/g
  Biodistribution: Liver: 4.05 ± 0.53 % ID/g
  Biodistribution: Lung: 2.80 ± 0.68 % ID/g
  Biodistribution: Muscle: 1.11 ± 0.23 % ID/g
  Biodistribution: Pancreas: 0.99 ± 0.18 % ID/g
  Biodistribution: Salivary Glands: 3.10 ± 0.51 % ID/g
  Biodistribution: Sm. Intestine: 2.32 ± 0.79 % ID/g
  Biodistribution: Spleen: 1.39 ± 0.10 % ID/g
  Biodistribution: Stomach: 1.89 ± 0.10 % ID/g
  Biodistribution: U87: 10.83 ± 1.02 % ID/g
[1]
  Stability (stable for at least): at least 4 h
PSMA+ PC3 PIP tumor; 2 h
  Uptake in PSMA+ PC3 PIP tumor: 12.06±0.78 % ID/g
PSMA+ PC3 PIP tumor; 2 h, blocking with FAPI-04 (500 nmol/kg)
  Uptake in PSMA+ PC3 PIP tumors with FAP blockade: 18.56±2.02 % ID/g
PSMA+ PC3 PIP tumor; 4 h
  Uptake in PSMA+ PC3 PIP tumor: 18.89±3.95 % ID/g
PSMA+ PC3 PIP tumor; 24 h
  Uptake in PSMA+ PC3 PIP tumor: 10.51±1.82 % ID/g
PSMA+ PC3 PIP tumor; ZJ43 (500 nmol/kg)
  Fold lower kidney uptake with ZJ43 vs unblocked: > 2 fold
PSMA+ PC3 PIP tumor; [6]
  Kidney uptake with PSMA blockade: 2.97±0.23 % ID/g
  Uptake in PSMA+ PIP tumor with PSMA blockade: 7.48±0.5 % ID/g
PSMA+ PC3 PIP tumor; from 1 to 24 h post-injection
  Tumor uptake and retention in PSMA+PC3 PIP tumor: > 10 % injected dose per gram of tissue
PSMA+ PC3 PIP tumor; unblocked
  Kidney uptake, unblocked agent: 8.03±0.89 % ID/g

Reference: patent publication US20240382629A1, “HETEROBIVALENT AND HOMOBIVALENT AGENTS TARGETING FIBROBLAST ACTIVATION PROTEIN ALPHA AND/OR PROSTATE-SPECIFIC MEMBRANE ANTIGEN” (The Johns Hopkins University, priority 2021, published 2024)
